According to patent US20260258084A1, “New Peptides as Selective IL-23 Receptor Antagonists” (Sanofi, priority 2022, published 2026):
pIC50: −log10 of the molar value. Starred links: 1 amine or outer side, 2 acyl side, 3 side chain; linkers in the order of their positions; H or OH if unused. Positions of bridges follow the written chain, without caps; N, C: chain ends. Non-standard residues stand in square brackets, D forms with d. Residues, ends and D or L forms follow the SMILES beside them. *: point of attachment. X3 = CN(CCCCC(=O)N[C@@H](CS[*:2])C(=O)[*:1])[*:3]; Trp(7-Me) = Cc1cccc2c(C[C@H](N)C(=O)O)c[nH]c12; X1 = O=C(CCCCN[*:3])N[C@@H](CS[*:2])C(=O)[*:1]; αMeLys(Me2) = CN(C)CCCC[C@](C)(N)C(=O)O; X2 = CN(C)[C@@H](CCCCN[*:1])C(=O)[*:2]; 2Nal = N[C@@H](Cc1ccc2ccccc2c1)C(=O)O; AEF = NCCOc1ccc(C[C@H](N)C(=O)O)cc1; 3Pal = N[C@@H](Cc1cccnc1)C(=O)O; αMeL = CC(C)C[C@](C)(N)C(=O)O; Suc = O=C(CCC(=O)[*:2])[*:1]; Thp = NC1(C(=O)O)CCOCC1; Me2NCH2CH2 = CN(C)CC*; Aib = CC(C)(N)C(=O)O; Ahx = NCCCCCC(=O)O; Ava = NCCCCC(=O)O; Sar = CNCC(=O)O

tested on: IL-23 induced STAT3 signaling in HEK-Blue™ IL-23 cells; assay: IL-23 induced STAT3 signaling in HEK-Blue IL-23 cells (SEAP reporter); type: cell-based; conditions: human IL23 0.25 ng/ml, read-out: pSTAT3
Method in brief: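 HEK-Blue IL-23 cells (10,000/well) pre-incubated 60 min at 37 °C with serially diluted peptides, then stimulated overnight with human IL-23 (0.25 ng/ml final). STAT3-driven SEAP in supernatant detected with QUANTI-Blue after 45 min at RT (OD 620-655 nm); dose-response curves fitted.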

Structure (SMILES)	pIC50
COc1ccc(C[C@@H]2NC(=O)[C@@H]3CSSC[C@H](NC(=O)CCCCNC(=O)CC[C@@H](C(=O)N[C@@H](CC(N)=O)C(=O)NCC(N)=O)NC(=O)C(C)(C)NC(=O)[C@H](Cc4ccc5ccccc5c4)NC2=O)C(=O)N[C@@H](CC(N)=O)C(=O)N[C@@H]([C@@H](C)O)C(=O)N[C@@H](Cc2c[nH]c4ccccc24)C(=O)N[C@@H](CCC(N)=O)C(=O)N3)cc1 [compound 4] ([Ava]CNTWQCY(Me)[2Nal][Aib]ENG-NH2; disulfide 2-7; lactam N-11)	7.46
C[C@@H](O)[C@@H]1NC(=O)[C@H](CC(N)=O)NC(=O)[C@@H]2CSSC[C@H](NC(=O)[C@H](CCC(N)=O)NC(=O)[C@H](Cc3c[nH]c4ccccc34)NC1=O)C(=O)N[C@@H](Cc1ccc(OCCN)cc1)C(=O)N[C@@H](Cc1ccc3ccccc3c1)C(=O)NC(C)(C)C(=O)N[C@H](C(=O)N[C@@H](CC(N)=O)C(=O)NCC(N)=O)CC(=O)NCCCCCC(=O)N2 [compound 9] ([Ahx]CNTWQC[AEF][2Nal][Aib]DNG-NH2; disulfide 2-7; lactam N-11)	7.19
CC(C)C[C@@H](NC(=O)[C@H](CC(N)=O)NC(=O)[C@@H]1CCC(=O)NCCCCC(=O)N[C@H]2CSSC[C@H](NC(=O)[C@H](CCC(N)=O)NC(=O)[C@H](Cc3c[nH]c4ccccc34)NC(=O)[C@H]([C@@H](C)O)NC(=O)[C@H](CC(N)=O)NC2=O)C(=O)N[C@@H](Cc2ccc(OCCN(C)C)cc2)C(=O)N[C@@H](Cc2ccc3ccccc3c2)C(=O)N[C@@](C)(CC(C)C)C(=O)N1)C(N)=O [compound 10] ([Ava]CNTWQCY(Me2NCH2CH2)[2Nal][αMeL]EN[dL]-NH2; disulfide 2-7; lactam N-11)	7.59
COc1ccc(C[C@@H]2NC(=O)[C@@H]3CSSC[C@H](NC(=O)CCC(=O)NCCCC[C@@H](C(=O)N[C@@H](CC(N)=O)C(=O)N[C@@H](CC(N)=O)C(N)=O)NC(=O)C(C)(C)NC(=O)[C@H](Cc4ccc5ccccc5c4)NC2=O)C(=O)N[C@@H](CC(N)=O)C(=O)N[C@@H]([C@@H](C)O)C(=O)N[C@@H](Cc2c[nH]c4ccccc24)C(=O)N[C@@H](CCC(N)=O)C(=O)N3)cc1 [compound 11]	7.27
CC(=O)N[C@H]1CCCCNC(=O)[C@@H]2CSSC[C@H](NC(=O)[C@H](CCC(N)=O)NC(=O)[C@H](Cc3c[nH]c4ccccc34)NC1=O)C(=O)N[C@@H](Cc1ccc(OCCN)cc1)C(=O)N[C@@H](Cc1ccc3ccccc3c1)C(=O)NC(C)(C)C(=O)N[C@H](C(=O)N[C@@H](CC(N)=O)C(=O)N[C@@H](CC(N)=O)C(N)=O)CCC(=O)N(C)CCCCC(=O)N2 [compound 12] (Ac-KWQC[AEF][2Nal][Aib]ENN-NH2; linker 1-4-8 via X3)	7.55
CC(=O)N[C@H]1CCCCNC(=O)[C@@H]2CSSC[C@H](NC(=O)[C@H](CCC(N)=O)NC(=O)[C@H](Cc3c[nH]c4ccccc34)NC1=O)C(=O)N[C@@H](Cc1ccc(OCCN)cc1)C(=O)N[C@@H](Cc1ccc3ccccc3c1)C(=O)NC1(CCOCC1)C(=O)N[C@H](C(=O)N[C@@H](CC(N)=O)C(=O)N[C@@H](CC(N)=O)C(N)=O)CCC(=O)N(C)CCCCC(=O)N2 [compound 13] (Ac-KWQC[AEF][2Nal][Thp]ENN-NH2; linker 1-4-8 via X3)	7.50
CC(=O)N[C@H]1CCCCNC(=O)[C@@H]2CSSC[C@H](NC(=O)[C@H](CCC(N)=O)NC(=O)[C@H](Cc3c[nH]c4ccccc34)NC1=O)C(=O)N[C@@H](Cc1ccc(OCCN)cc1)C(=O)N[C@@H](Cc1ccc3ccccc3c1)C(=O)N[C@@](C)(CC(C)C)C(=O)N[C@H](C(=O)N[C@@H](CC(N)=O)C(=O)N[C@@H](CC(N)=O)C(N)=O)CCC(=O)N(C)CCCCC(=O)N2 [compound 14] (Ac-KWQC[AEF][2Nal][αMeL]ENN-NH2; linker 1-4-8 via X3)	7.73
CC(=O)N[C@H]1CCCCNC(=O)[C@@H]2CSSC[C@H](NC(=O)[C@H](CCC(N)=O)NC(=O)[C@H](Cc3c[nH]c4ccccc34)NC1=O)C(=O)N[C@@H](Cc1ccc(OCCN)cc1)C(=O)N[C@@H](Cc1ccc3ccccc3c1)C(=O)NC(C)(C)C(=O)N[C@H](C(=O)N[C@@H](CC(N)=O)C(=O)NCC(N)=O)CCC(=O)N(C)CCCCC(=O)N2 [compound 15] (Ac-KWQC[AEF][2Nal][Aib]ENG-NH2; linker 1-4-8 via X3)	7.53
CC(=O)N[C@H]1CCCCNC(=O)[C@@H]2CSSC[C@H](NC(=O)[C@H](CCC(N)=O)NC(=O)[C@H](Cc3c[nH]c4ccccc34)NC1=O)C(=O)N[C@@H](Cc1ccc(OCCN)cc1)C(=O)N[C@@H](Cc1ccc3ccccc3c1)C(=O)NC1(CCOCC1)C(=O)N[C@H](C(=O)N[C@@H](CC(N)=O)C(=O)NCC(N)=O)CCC(=O)N(C)CCCCC(=O)N2 [compound 16] (Ac-KWQC[AEF][2Nal][Thp]ENG-NH2; linker 1-4-8 via X3)	7.49
CC(=O)N[C@H]1CCCCNC(=O)[C@@H]2CSSC[C@H](NC(=O)[C@H](CCC(N)=O)NC(=O)[C@H](Cc3c[nH]c4ccccc34)NC1=O)C(=O)N[C@@H](Cc1ccc(OCCN)cc1)C(=O)N[C@@H](Cc1ccc3ccccc3c1)C(=O)NC1(CCOCC1)C(=O)N[C@H](C(=O)N[C@@H](C)C(=O)NCC(N)=O)CCC(=O)N(C)CCCCC(=O)N2 [compound 17] (Ac-KWQC[AEF][2Nal][Thp]EAG-NH2; linker 1-4-8 via X3)	7.21
CC(=O)N[C@H]1CCCCNC(=O)[C@@H]2CSSC[C@H](NC(=O)[C@H](CCC(N)=O)NC(=O)[C@H](Cc3c[nH]c4ccccc34)NC1=O)C(=O)N[C@@H](Cc1ccc(OCCN)cc1)C(=O)N[C@@H](Cc1ccc3ccccc3c1)C(=O)N[C@@](C)(CC(C)C)C(=O)N[C@H](C(=O)N[C@@H](C)C(=O)NCC(N)=O)CCC(=O)N(C)CCCCC(=O)N2 [compound 18] (Ac-KWQC[AEF][2Nal][αMeL]EAG-NH2; linker 1-4-8 via X3)	7.16
CC(=O)N[C@H]1CCCCNC(=O)[C@@H]2CSSC[C@H](NC(=O)[C@H](CCC(N)=O)NC(=O)[C@H](Cc3c[nH]c4ccccc34)NC1=O)C(=O)N[C@@H](Cc1ccc(OCCN)cc1)C(=O)N[C@@H](Cc1ccc3ccccc3c1)C(=O)NC(C)(C)C(=O)N[C@H](C(=O)N[C@@H](C)C(=O)N[C@H](CC(C)C)C(N)=O)CCC(=O)N(C)CCCCC(=O)N2 [compound 19] (Ac-KWQC[AEF][2Nal][Aib]EA[dL]-NH2; linker 1-4-8 via X3)	7.05
CC(=O)NCCCC[C@@H]1NC(=O)[C@H](Cc2c[nH]c3c(C)cccc23)NC(=O)[C@H]([C@@H](C)O)NC(=O)[C@H](CC(N)=O)NC(=O)[C@@H]2CSSC[C@H](NC1=O)C(=O)N[C@@H](Cc1ccc(OCCN(C)C)cc1)C(=O)N[C@@H](Cc1ccc3ccccc3c1)C(=O)N[C@@](C)(CC(C)C)C(=O)N[C@H](C(=O)N[C@@H](CC(N)=O)C(=O)N[C@@H](Cc1c[nH]cn1)C(N)=O)CCCCNC(=O)CCC(=O)N2 [compound 23] (CNT[Trp(7-Me)]K(Ac)CY(Me2NCH2CH2)[2Nal][αMeL]KNH-NH2; disulfide 1-6; linker N-10 via Suc)	8.48
Cc1cccc2c(C[C@@H]3NC(=O)[C@H]([C@@H](C)O)NC(=O)[C@H](CC(N)=O)NC(=O)[C@@H]4CSSC[C@H](NC(=O)[C@H](CC(C)C)NC3=O)C(=O)N[C@@H](Cc3ccc(OCCN(C)C)cc3)C(=O)N[C@@H](Cc3ccc5ccccc5c3)C(=O)NC3(CCOCC3)C(=O)N[C@H](C(=O)N[C@@H](CC(N)=O)C(=O)N[C@@H](Cc3cccnc3)C(=O)N(C)CC(N)=O)CCC(=O)NCCCCC(=O)N4)c[nH]c12 [compound 24] ([Ava]CNT[Trp(7-Me)]LCY(Me2NCH2CH2)[2Nal][Thp]EN[3Pal][Sar]-NH2; disulfide 2-7; lactam N-11)	9.23
CC(C)C[C@]1(C)NC(=O)[C@H](Cc2ccc3ccccc3c2)NC(=O)[C@H](Cc2ccc(OCCN(C)C)cc2)NC(=O)[C@@H]2CSSC[C@H](NC(=O)CCCCNC(=O)CC[C@@H](C(=O)N[C@@H](CC(N)=O)C(=O)N[C@@H](CC(N)=O)C(N)=O)NC1=O)C(=O)N[C@@H](CC(N)=O)C(=O)N[C@@H]([C@@H](C)O)C(=O)N[C@@H](Cc1c[nH]c3ccccc13)C(=O)N[C@@H](CCC(N)=O)C(=O)N2 [compound 27] ([Ava]CNTWQCY(Me2NCH2CH2)[2Nal][αMeL]ENN-NH2; disulfide 2-7; lactam N-11)	8.77
CC(=O)N[C@H]1CCCCNC(=O)[C@@H]2CSSC[C@H](NC(=O)[C@H](CCC(N)=O)NC(=O)[C@H](Cc3c[nH]c4ccccc34)NC1=O)C(=O)N[C@@H](Cc1ccc(OCCN(C)C)cc1)C(=O)N[C@@H](Cc1ccc3ccccc3c1)C(=O)NC(C)(C)C(=O)N[C@H](C(=O)N[C@@H](C)C(=O)NCC(N)=O)CCC(=O)NCCCCC(=O)N2 [compound 32] (Ac-KWQCY(Me2NCH2CH2)[2Nal][Aib]EAG-NH2; linker 1-4-8 via X1)	7.69
CC(=O)N[C@H]1CCCCNC(=O)[C@@H]2CSSC[C@H](NC(=O)[C@H](CCC(N)=O)NC(=O)[C@H](Cc3c[nH]c4ccccc34)NC1=O)C(=O)N[C@@H](Cc1ccc(OCCN(C)C)cc1)C(=O)N[C@@H](Cc1ccc3ccccc3c1)C(=O)NC1(CCOCC1)C(=O)N[C@H](C(=O)N[C@@H](C)C(=O)N[C@H](CC(C)C)C(N)=O)CCC(=O)NCCCCC(=O)N2 [compound 33] (Ac-KWQCY(Me2NCH2CH2)[2Nal][Thp]EA[dL]-NH2; linker 1-4-8 via X1)	7.27
CC(=O)N[C@H]1CCCCNC(=O)[C@@H]2CSSC[C@H](NC(=O)[C@H](CCC(N)=O)NC(=O)[C@H](Cc3c[nH]c4ccccc34)NC1=O)C(=O)N[C@@H](Cc1ccc(OCCN)cc1)C(=O)N[C@@H](Cc1ccc3ccccc3c1)C(=O)NC1(CCOCC1)C(=O)N[C@H](C(=O)N[C@@H](C)C(=O)N[C@H](CC(C)C)C(N)=O)CCC(=O)N(C)CCCCC(=O)N2 [compound 34] (Ac-KWQC[AEF][2Nal][Thp]EA[dL]-NH2; linker 1-4-8 via X3)	7.88
CC(=O)NCCCC[C@@H]1NC(=O)[C@H](Cc2c[nH]c3ccccc23)NC(=O)[C@@H](N(C)C)CCCCNC(=O)[C@@H]2CSSC[C@H](NC1=O)C(=O)N[C@@H](Cc1ccc(OCCN(C)C)cc1)C(=O)N[C@@H](Cc1ccc3ccccc3c1)C(=O)N[C@@](C)(CCCCN(C)C)C(=O)N[C@H](C(=O)N[C@@H](CC(N)=O)C(=O)N[C@@H](Cc1cccnc1)C(=O)N(C)CC(N)=O)CCC(=O)NCCCCC(=O)N2 [compound 36] ([Ava]C[X2]WK(Ac)CY(Me2NCH2CH2)[2Nal][αMeLys(Me2)]EN[3Pal][Sar]-NH2; disulfide 2-6; lactam N-10)	7.86
